Structures are written as SMILES. Calls of active or inactive are those of the source. The rule behind the calls is not given here.

As a reminder, the GI50 is the concentration that inhibits growth by half. The low end stands for more potent growth inhibition, the high end for less potent growth inhibition.

The test system of one assay is Bacillus subtilis. As to the kind of experiment: Antimicrobial activity against Bacillus subtilis at 200 ug/disk. The format is functional, organism-based.
The nature of assay [1]: Cytotoxicity against human NCI60 cells. Type of assay: functional.

As to `CC(C)=CC[C@@]12C[C@@H]3C(=O)O[C@H](CC(C)C)C(=O)N3[C@@H]1Nc1ccccc12` [MOLLENINE A], the result with Bacillus subtilis was Active. Growth in assay [1] was halved (GI50) at 31 µM.

The record behind these values is ChEMBL document CHEMBL1150908, “Mollenines A and B: new dioxomorpholines from the ascostromata of Eupenicillium molle” (1998).
